From PMC10935581 (Biochemistry, 2023)
“Also recorded” adds a separate entry of the source. Like-named read-outs stand apart in the source and are kept apart here.

Experiments:
NAMPT [1] = molecular target: T1, NAMPT (Homo sapiens, UniProt P43490); details: cited from earlier work
NAMPT [2] = molecular target: T1, NAMPT; experiment: Coupled primary NAMPT enzyme assay; format: biochemical; details: for HTS outcome (increase of NAMPT enzyme activity): screen of ChemDiv and Microsource Spectrum libraries
NAMPT [3] = molecular target: T1, NAMPT; experiment: Fluorescence polarization binding assay
NAMPT [4] = molecular target: T1, NAMPT; experiment: Orthogonal NAMPT endpoint assay; format: biochemical
[5] = system: THP-1 human leukemic monocyte cell line; experiment: Cellular NAD+ by miniaturized NADglo assay; format: cell-based; details: 24 h incubation
NAMPT [6] = molecular target: T1, NAMPT; experiment: Uncoupled ATPase reaction of NAMPT; format: biochemical; details: absence of PRPP

T1 sequence (P43490 whole entry): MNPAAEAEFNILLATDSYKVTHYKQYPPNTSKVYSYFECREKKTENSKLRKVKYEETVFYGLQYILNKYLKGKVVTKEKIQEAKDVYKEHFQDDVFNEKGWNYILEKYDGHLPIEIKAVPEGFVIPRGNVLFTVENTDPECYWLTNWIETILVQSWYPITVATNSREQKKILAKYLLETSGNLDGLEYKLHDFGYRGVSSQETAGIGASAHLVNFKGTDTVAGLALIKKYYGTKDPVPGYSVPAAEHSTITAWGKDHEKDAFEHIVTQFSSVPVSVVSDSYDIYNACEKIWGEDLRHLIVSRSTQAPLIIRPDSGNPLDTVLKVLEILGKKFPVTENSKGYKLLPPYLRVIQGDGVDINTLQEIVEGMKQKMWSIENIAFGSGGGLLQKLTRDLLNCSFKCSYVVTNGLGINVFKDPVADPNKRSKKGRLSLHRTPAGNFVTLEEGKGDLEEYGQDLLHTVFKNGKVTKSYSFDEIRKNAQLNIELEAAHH

Nc1ncnc2c1ncn2[C@@H]1O[C@H](COP(=O)(O)OP(=O)(O)OP(=O)(O)O)[C@@H](O)[C@H]1O [ATP]
Km (NAMPT [1]; read-out: KM(ATP)): 7 mM

NC(=O)c1ccc[n+]([C@@H]2O[C@H](COP(=O)([O-])OP(=O)(O)OC[C@H]3O[C@@H](n4cnc5c(N)ncnc54)[C@H](O)[C@@H]3O)[C@@H](O)[C@H]2O)c1 [NAD^+, Nicotinamide adenine dinucleotide]
Ki (NAMPT [1]; read-out: KI for inhibition of NAMPT activity): 2 µM

NC(=O)c1cccnc1 [NAM, nicotinamide]
Km (NAMPT [2]; read-out: Apparent KM for NAM, no activator): ~0.000145 mM

COc1cccc(NCC(F)Cn2c3ccc(Br)cc3c3cc(Br)ccc32)c1 (stereo not drawn) [P7C3-A20]
Binding to NAMPT (in words) (NAMPT [3]): did not show any NAMPT binding activity

O=C(NCc1ccncc1)Nc1ccc(S(=O)(=O)N2CC3CCC(C2)O3)cc1 [SBI-0797812]
Effect on ATP dependence of NAMPT (KM(ATP), KI(ATP)) (NAMPT [4]): significant left-shift in KM(ATP); also recorded: dramatic left-shift in both KM and KI for ATP | NAMPT activity relative to vehicle control (NAMPT [4]; ATP 4 mM, NAM 3 or 300 μM, PRPP 40 μM): Inhibition of NAMPT activity | NAMPT activation (NAMPT [4]; Fig. 2D): confirmed to activate NAMPT | KI(ATP) in presence of activator (NAMPT [4]; left-shifted): < 1000 µM | Effect on cellular NAD+ (in words) [5]: reducing cellular levels of NAD^+; also recorded: inhibited both NAMPT activity and NAD^+ formation in THP-1 cells

C/C=C(/C(=C/C)c1ccc(O)cc1)c1ccc(O)cc1 [dienestrol]
HTS outcome (increase of NAMPT enzyme activity) (NAMPT [2]): validated hits

O=c1c(-c2ccc(O)cc2)coc2cc(O)cc(O)c12 [genestein]
HTS outcome (increase of NAMPT enzyme activity) (NAMPT [2]): validated hits

COc1ccc(CC(=O)c2ccc(O)cc2O)cc1 [onenetin]
HTS outcome (increase of NAMPT enzyme activity) (NAMPT [2]): validated hits

O=c1c(O)c(-c2ccc(O)c(O)c2)oc2cc(O)cc(O)c12 [quercitin]
NAMPT activation in primary assay (NAMPT [2]; at ≤ 40 μM): devoid of activity

C[C@@H]1O[C@@H](Oc2c(-c3ccc(O)c(O)c3)oc3cc(O)cc(O)c3c2=O)[C@H](O)[C@H](O)[C@H]1O [quercitrin]
Maximal activation of NAMPT relative to vehicle control (NAMPT [2]): high activation at higher concentrations | Effect on KM(ATP) (NAMPT [2]; rate increased): without significant effect | HTS outcome (increase of NAMPT enzyme activity) (NAMPT [2]): validated hits | Binding to NAMPT (in words) (NAMPT [3]): weak binding NAMPT ligand | Kd (NAMPT [3]): 16 µM | Effect on uncoupled ATP consumption (NAMPT [6]): increase uncoupled ATP consumption | Effect on cellular NAD+ (in words) [5]: inactive in cells | Effect on cellular NAD+ (in words) ([5]; listed as Quercitrin): inactive
